Assay results from patent EP4653437A2 (Innovo Therapeutics Inc., priority 2023, dated 2024).
pIC50: −log10 of the molar value.

Assays:
[1] = biological target: T1, human 15-PGDH (Homo sapiens, UniProt P15428); assay: Evaluation of 15-PGDH inhibitory activity (fluorescence enzyme assay, NAD+/PGE2); type: biochemical; settings: human 15-PGDH enzyme, fluorescence Vmax
T1 construct: purchased R&D System 5660-DH
T1 sequence (P15428 1-266): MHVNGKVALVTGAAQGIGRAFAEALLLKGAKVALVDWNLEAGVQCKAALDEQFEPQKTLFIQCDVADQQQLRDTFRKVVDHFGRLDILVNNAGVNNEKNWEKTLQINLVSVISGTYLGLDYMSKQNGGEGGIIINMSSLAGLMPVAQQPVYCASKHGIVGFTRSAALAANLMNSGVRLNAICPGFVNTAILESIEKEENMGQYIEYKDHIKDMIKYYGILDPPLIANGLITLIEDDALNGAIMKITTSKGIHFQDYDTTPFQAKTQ
Procedure: 15-PGDH inhibition activity of Example compounds was measured as follows. 6.7 ng of human 15-PGDH (R&D System# 5660-DH) enzyme (10 µL) was added to a black 96 well plate, 60 µL of buffer (50 mM Tris-HCl, pH 7.5, 0.01% Tween 20) was added, and 10 µL of 200 µM β-Nicotinamide adenine dinucleotide sodium salt (Sigma, Cat# N0632-5G) was added. 10 µL of (10x) compound solution in DMSO was added and reacted for 10 minutes at room temperature.

[2] = tested on: A549 cells; assay: Measurement of PGE2-increasing activity in A549 cells (IL-1β stimulated, PGE2 quantified in supernatant); type: cell-based; settings: Homo sapiens, 24 h; concentration of 1 µM of each compound; IL-1β treated A549 cells; read-out: Increased PGE2 production in A549 cells
How it was run: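 PGE2 secreted into the supernatant was measured by immunoassay 24 h after treatment. Before treatment, A549 cells were cultured 24 h in 10% FBS F12K, washed, and placed in serum-free medium containing compound (DMSO 0.1% final) plus or minus IL-1β, incubated at 37 °C, 5% CO2.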

SMILES | pIC50 [1] | fold induction at 1 µM [2]
O=C(c1cnn2c(-c3cccc(-c4noc(=O)[nH]4)c3)cccc12)N1CCCCC1 [Example 115, 3-(3-(3-(piperidine-1-carbonyl)pyrazolo[1,5-a]pyridin-7-yl)phenyl)-1,2,4-oxadiazol-5(4H)-one] | ≥ 7.00 | > 1.5
O=C(c1cnn2c(-c3ccc(-c4noc(=O)[nH]4)cc3)cccc12)N1CCCCC1 [Example 116, 3-(4-(3-(piperidine-1-carbonyl)pyrazolo[1,5-a]pyridin-7-yl)phenyl)-1,2,4-oxadiazol-5(4H)-one] | ≥ 7.00 | > 1.5
O=C(c1cnn2c(-c3ccc(-c4noc(=O)[nH]4)nc3)cccc12)N1CCCCC1 [Example 117, 3-(5-(3-(piperidine-1-carbonyl)pyrazolo[1,5-a]pyridin-7-yl)pyridin-2-yl)-1,2,4-oxadiazol-5(4H)-one] | ≥ 7.00 | > 1.5
Cc1nc(-c2ccc(-c3cccc4c(C(=O)N5CCCCC5)cnn34)cc2)no1 [Example 118, (7-(4-(5-methyl-1,2,4-oxadiazol-3-yl)phenyl)pyrazolo[1,5-a]pyridin-3-yl)(piperidin-1-yl)methanone] | ≥ 7.00 | > 1.5
O=C1NC(=O)/C(=C/c2cccc(-c3cccc4c(C(=O)N5CCCCC5)cnn34)c2)S1 [Example 119, (Z)-5-(3-(3-(piperidine-1-carbonyl)pyrazolo[1,5-a]pyridin-7-yl)benzylidene)thiazolidine-2,4-dione] | ≥ 7.00 | > 1.5
CC(C)(C)OC(=O)N1CC=C(c2cccc3c(C(=O)N4CCCCC4)cnn23)CC1 [Example 120, tert-butyl 4-(3-(piperidine-1-carbonyl)pyrazolo[1,5-a]pyridin-7-yl)-3,6-dihydropyridine-1(2H)-carboxylate] | ≥ 7.00 | > 1.5
O=C(c1cnn2c(-c3csc4ccccc34)cccc12)N1CCCCC1 [Example 124, (7-(benzo[b]thiophen-3-yl)pyrazolo[1,5-a]pyridin-3-yl)(piperidin-1-yl)methanone] | ≥ 7.00 | > 1.5
O=C(c1cnn2c(-c3ccc4occc4c3)cccc12)N1CCCCC1 [Example 127, (7-(benzofuran-5-yl)pyrazolo[1,5-a]pyridin-3-yl)(piperidin-1-yl)methanone] | ≥ 7.00 | > 1.5
O=C(c1cnn2c(-c3cnc4ccccc4c3)cccc12)N1CCCCC1 [Example 130, piperidin-1-yl(7-(quinolin-3-yl)pyrazolo[1,5-a]pyridin-3-yl)methanone] | ≥ 7.00 | > 1.5
O=C1NCCc2ccc(-c3cccc4c(C(=O)N5CCCCC5)cnn34)cc21 [Example 131, 7-(3-(piperidine-1-carbonyl)pyrazolo[1,5-a]pyridin-7-yl)-3,4-dihydroisoquinolin-1(2H)-one] | ≥ 7.00 | > 1.5
CN1CCc2ccc(-c3cccc4c(C(=O)N5CCCCC5)cnn34)cc2C1=O [Example 132, 2-methyl-7-(3-(piperidine-1-carbonyl)pyrazolo[1,5-a]pyridin-7-yl)-3,4-dihydroisoquinolin-1(2H)-one] | ≥ 7.00 | > 1.5
CC(C)N1CCc2ccc(-c3cccc4c(C(=O)N5CCCCC5)cnn34)cc2C1=O [Example 133, 2-isopropyl-7-(3-(piperidine-1-carbonyl)pyrazolo[1,5-a]pyridin-7-yl)-3,4-dihydroisoquinolin-1(2H)-one] | ≥ 7.00 | > 1.5
O=C(c1cnn2c(-c3ccc4cc[nH]c(=O)c4c3)cccc12)N1CCCCC1 [Example 134, 7-(3-(piperidine-1-carbonyl)pyrazolo[1,5-a]pyridin-7-yl)isoquinolin-1(2H)-one] | ≥ 7.00 | > 1.5
O=C1NCCc2cc(-c3cccc4c(C(=O)N5CCCCC5)cnn34)ccc21 [Example 136, 6-(3-(piperidine-1-carbonyl)pyrazolo[1,5-a]pyridin-7-yl)-3,4-dihydroisoquinolin-1(2H)-one] | ≥ 7.00 | > 1.5
O=C(c1cnn2c(-c3ccc4c(=O)[nH]ccc4c3)cccc12)N1CCCCC1 [Example 138, 6-(3-(piperidine-1-carbonyl)pyrazolo[1,5-a]pyridin-7-yl)isoquinolin-1(2H)-one] | ≥ 7.00 | > 1.5
O=C1NCc2ccc(-c3cccc4c(C(=O)N5CCCCC5)cnn34)cc21 [Example 140, 6-(3-(piperidine-1-carbonyl)pyrazolo[1,5-a]pyridin-7-yl)isoindolin-1-one] | ≥ 7.00 | > 1.5
CN1Cc2ccc(-c3cccc4c(C(=O)N5CCCCC5)cnn34)cc2C1=O [Example 141, 2-methyl-6-(3-(piperidine-1-carbonyl)pyrazolo[1,5-a]pyridin-7-yl)isoindolin-1-one] | ≥ 7.00 | > 1.5

SMILES | pIC50 [1] | fold induction at 1 µM [2]
CC(C)N1Cc2ccc(-c3cccc4c(C(=O)N5CCCCC5)cnn34)cc2C1=O [Example 142, 2-isopropyl-6-(3-(piperidine-1-carbonyl)pyrazolo[1,5-a]pyridin-7-yl)isoindolin-1-one] | ≥ 7.00 | > 1.5
O=C1NCc2cc(-c3cccc4c(C(=O)N5CCCCC5)cnn34)ccc21 [Example 143, 5-(3-(piperidine-1-carbonyl)pyrazolo[1,5-a]pyridin-7-yl)isoindolin-1-one] | ≥ 7.00 | > 1.5
N#Cc1ccc(Nc2cccc3c(C(=O)N4CCCCC4)cnn23)cc1 [Example 146, 4-((3-(piperidine-1-carbonyl)pyrazolo[1,5-a]pyridin-7-yl)amino)benzonitrile] | ≥ 7.00 | > 1.5
O=C(c1cnn2c(Nc3ccc[nH]c3=O)cccc12)N1CCCCC1 [Example 147, 3-((3-(piperidine-1-carbonyl)pyrazolo[1,5-a]pyridin-7-yl)amino)pyridin-2(1H)-one] | ≥ 7.00 | > 1.5
O=C(c1cnn2c(NCc3ncccn3)cccc12)N1CCCCC1 [Example 148, piperidin-1-yl(7-((pyrimidin-2-ylmethyl)amino)pyrazolo[1,5-a]pyridin-3-yl)methanone] | ≥ 7.00 | > 1.5
O=C(c1cnn2c(NCCc3ccncc3)cccc12)N1CCCCC1 [Example 149, piperidin-1-yl(7-((2-(pyridin-4-yl)ethyl)amino)pyrazolo[1,5-a]pyridin-3-yl)methanone] | ≥ 7.00 | > 1.5
CN1CCC(Nc2cccc3c(C(=O)N4CCCCC4)cnn23)CC1 [Example 150, (7-((1-methylpiperidin-4-yl)amino)pyrazolo[1,5-a]pyridin-3-yl)(piperidin-1-yl)methanone] | 6.00 to 7.00 | < 1.5
CCCCC(=O)c1cnn2c(-c3cnc4ccccc4c3)cccc12 [Example 151, 1-(7-(quinolin-3-yl)pyrazolo[1,5-a]pyridin-3-yl)pentan-1-one] | ≥ 7.00 | > 1.5
O=C1NCCc2ccc(-c3cccc4c(C(=O)N5CCC(F)CC5)cnn34)cc21 [Example 154, 7-(3-(4-fluoropiperidine-1-carbonyl)pyrazolo[1,5-a]pyridin-7-yl)-3,4-dihydroisoquinolin-1(2H)-one] | ≥ 7.00 | > 1.5
O=C1NCc2ccc(-c3cccc4c(C(=O)N5CCC(F)CC5)cnn34)cc21 [Example 155, 6-(3-(4-fluoropiperidine-1-carbonyl)pyrazolo[1,5-a]pyridin-7-yl)isoindolin-1-one] | ≥ 7.00 | > 1.5
N#Cc1ccc(-c2cccc3c(C(=O)N4CCC(F)CC4)cnn23)cc1 [Example 156, 4-(3-(4-fluoropiperidine-1-carbonyl)pyrazolo[1,5-a]pyridin-7-yl)benzonitrile] | ≥ 7.00 | > 1.5
O=C(c1cnn2c(-c3ccc([N+](=O)[O-])cc3)cccc12)N1CCC(F)CC1 [Example 157, (4-fluoropiperidin-1-yl)(7-(4-nitrophenyl)pyrazolo[1,5-a]pyridin-3-yl)methanone] | ≥ 7.00 | > 1.5
Nc1nn2c(-c3ccc4c(c3)C(=O)NCC4)cccc2c1C(=O)N1CCCCC1 [Example 159, 7-(2-amino-3-(piperidine-1-carbonyl)pyrazolo[1,5-a]pyridin-7-yl)-3,4-dihydroisoquinolin-1(2H)-one] | 6.00 to 7.00 | > 1.5
CNc1nn2c(-c3ccc4c(c3)C(=O)NCC4)cccc2c1C(=O)N1CCCCC1 [Example 160] | < 6.00 | < 1.5
O=C(c1cncc(-c2cccc3c(C(=O)N4CCCCC4)cnn23)c1)N1CC(F)C1 [Example 192, (3-fluoroazetidin-1-yl)(5-(3-(piperidine-1-carbonyl)pyrazolo[1,5-a]pyridin-7-yl)pyridin-3-yl)methanone] | ≥ 7.00 | > 1.5
Cn1ccc(NC(=O)c2cncc(-c3cccc4c(C(=O)N5CCCCC5)cnn34)c2)n1 [Example 193, N-(1-methyl-1H-pyrazol-3-yl)-5-(3-(piperidine-1-carbonyl)pyrazolo[1,5-a]pyridin-7-yl)nicotinamide] | ≥ 7.00 | > 1.5
